Columns and labels:
[1] = system: transgenic Arabidopsis thaliana T1 plants (ALT-1-01, ALT-2-01, ALT-3-01; cytoplasmic or chloroplastic); assay: Herbicide tolerance of transgenic Arabidopsis thaliana T1 plants expressing thifensulfuron hydrolase, resistance classes counted after spraying; format: in vivo; conditions: for Highly resistant (number of plants with growth status consistent with blank solvent group) / Moderately resistant (number of plants with bolting height less than 1/2 of blank solvent group) / Non-resistant (number of plants dead) / Poorly resistant (number of plants still not capable of bolting): 1-fold field concentration (g ai/ha: Sulfometuron-methyl 30, iodosulfuron-methyl 10, mesosulfuron 14, oxasulfuron 60), 14 days after spraying
From the text: (§1) T1 transformants were initially selected from the background of untransformed seeds using a glufosinate selection scheme. About 40000 T1 seeds were screened, and 380 T1 positive transformants (PAT gene) were identified with a transformation efficiency of about 0.95%. The plants that were transformed with the recombinant expression vector DBN100632 were Arabidopsis thaliana plants having an ALT-1-01 nucleotide sequence located in the cytoplasm introduced (At cytoplasmic ALT-1-01), and the plants that were transformed with the recombinant expression vector DBN100631 were Arabidopsis thaliana plants having an ALT-1-01 nucleotide sequence located in the chloroplast introduced (At chloroplastic ALT-1-01); the plants that were transformed with the recombinant expression vector DBN100634 were Arabidopsis thaliana plants having an ALT-2-01 nucleotide sequence located in the cytoplasm introduced (At cytoplasmic ALT-2-01), and the plants that were transformed with the recombinant expression vector DBN100633 were Arabidopsis thaliana plants having an ALT-2-01 nucleotide sequence located in the chloroplast introduced (At chloroplastic ALT-2-01); and the plants that were transformed with the recombinant expression vector DBN100636 were Arabidopsis thaliana plants having an ALT-3-01 nucleotide sequence located in the cytoplasm introduced (At cytoplasmic ALT-3-01), and the plants that were transformed with the recombinant expression vector DBN100635 were Arabidopsis thaliana plants having an ALT-3-01 nucleotide sequence located in the chloroplast introduced (At chloroplastic ALT-3-01). The herbicide tolerance effects of At cytoplasmic ALT-1-01 T1 plants, At chloroplastic ALT-1-01 T1 plants, At cytoplasmic ALT-2-01 T1 plants, At chloroplastic ALT-2-01 T1 plants, At cytoplasmic ALT-3-01 T1 plants, At chloroplastic ALT-3-01 T1 plants and wild-type Arabidopsis thaliana plants on Sulfometuron-methyl were detected (14 days after sowing), respectively.
(§2) At cytoplasmic ALT-1-01 T1 plants, At chloroplastic ALT-1-01 T1 plants, At cytoplasmic ALT-2-01 T1 plants, At chloroplastic ALT-2-01 T1 plants, At cytoplasmic ALT-3-01 T1 plants, At chloroplastic ALT-3-01 T1 plants and wild-type Arabidopsis thaliana plants were sprayed with Sulfometuron-methyl (30 g ai/ha, 1-fold field concentration) and a blank solvent (water), respectively. Plants were counted for the resistance situations 14 days after spraying: those having a consistent growth status with the blank solvent (water) group after 14 days were classified as highly resistant plants, those having a bolting height less than ½ of that of the blank solvent (water) group after 14 days were classified as moderately resistant plants, those still not capable of bolting after 14 days were classified as poorly resistant plants, and those dead after 14 days were classified as non-resistant plants. Since each Arabidopsis thaliana T1 plant was an independent transformation event, a significant difference in individual T1 responses could be expected at a given dose.
(§3) At cytoplasmic ALT-1-01 T1 plants, At chloroplastic ALT-1-01 T1 plants, At cytoplasmic ALT-2-01 T1 plants, At chloroplastic ALT-2-01 T1 plants, At cytoplasmic ALT-3-01 T1 plants, At chloroplastic ALT-3-01 T1 plants and wild-type Arabidopsis thaliana plants in Example 4 were sprayed with iodosulfuron-methyl (10 g ai/ha, 1-fold field concentration), mesosulfuron (14 g ai/ha, 1-fold field concentration) and oxasulfuron (60 g ai/ha, 1-fold field concentration), respectively, in addition to Sulfometuron-methyl (30 g ai/ha, 1-fold field concentration) and the blank solvent (water). […]

[2] = system: wild-type Arabidopsis thaliana plants; assay: Herbicide tolerance of wild-type Arabidopsis thaliana plants, resistance classes counted after spraying; format: in vivo
From the text: as §1, §2, §3

[3] = At chloroplastic ALT-1-01 T1 plants
[4] = At chloroplastic ALT-2-01 T1 plants
[5] = At chloroplastic ALT-3-01 T1 plants
[6] = At cytoplasmic ALT-1-01 T1 plants
[7] = At cytoplasmic ALT-2-01 T1 plants
[8] = At cytoplasmic ALT-3-01 T1 plants
[9] = 1-fold field concentration (g ai/ha: Sulfometuron-methyl 30, iodosulfuron-methyl 10, mesosulfuron 14, oxasulfuron 60), 14 days after spraying

## COC(=O)c1ccccc1S(=O)(=O)NC(=O)Nc1nc(C)cc(C)n1 [Sulfometuron-methyl, 2-(4,6-dimethylpyrimidine-2-amino-formamido-sulfonyl) methyl benzoate]
[1]; [3]
  Highly resistant (number of plants with growth status consistent with blank solvent group): 27
  Moderately resistant (number of plants with bolting height less than 1/2 of blank solvent group): 0
  Non-resistant (number of plants dead): 1
  Poorly resistant (number of plants still not capable of bolting): 0
[1]; [4]
  Highly resistant (number of plants with growth status consistent with blank solvent group): 29
  Moderately resistant (number of plants with bolting height less than 1/2 of blank solvent group): 0
  Non-resistant (number of plants dead): 0
  Poorly resistant (number of plants still not capable of bolting): 1
[1]; [5]
  Highly resistant (number of plants with growth status consistent with blank solvent group): 27
  Moderately resistant (number of plants with bolting height less than 1/2 of blank solvent group): 0
  Non-resistant (number of plants dead): 1
  Poorly resistant (number of plants still not capable of bolting): 0
[1]; [6]
  Highly resistant (number of plants with growth status consistent with blank solvent group): 23
  Moderately resistant (number of plants with bolting height less than 1/2 of blank solvent group): 2
  Non-resistant (number of plants dead): 1
  Poorly resistant (number of plants still not capable of bolting): 1
[1]; [7]
  Highly resistant (number of plants with growth status consistent with blank solvent group): 24
  Moderately resistant (number of plants with bolting height less than 1/2 of blank solvent group): 0
  Non-resistant (number of plants dead): 3
  Poorly resistant (number of plants still not capable of bolting): 2
[1]; [8]
  Highly resistant (number of plants with growth status consistent with blank solvent group): 22
  Moderately resistant (number of plants with bolting height less than 1/2 of blank solvent group): 1
  Non-resistant (number of plants dead): 3
  Poorly resistant (number of plants still not capable of bolting): 1
[1]; transgenic Arabidopsis thaliana T1 plants, 30 g ai/ha
  herbicide tolerance conferred by the thifensulfuron hydrolase (ALT-1, ALT-2 and ALT-3): conferred Sulfometuron-methyl herbicide tolerance to individual Arabidopsis thaliana plants
[2]; [9]
  Highly resistant (number of plants with growth status consistent with blank solvent group): 0
  Moderately resistant (number of plants with bolting height less than 1/2 of blank solvent group): 0
  Non-resistant (number of plants dead): 32
  Poorly resistant (number of plants still not capable of bolting): 0
[2]; 30 g ai/ha
  herbicide tolerance of wild-type plants: none of the wild-type Arabidopsis thaliana plants was tolerant

From patent US20190055576A1, “USE OF HERBICIDE-TOLERANT PROTEIN” (BEIJING DABEINONG TECHNOLOGY GROUP CO., LTD., priority 2016, published 2019)
